According to patent publication US20220193063A1, “METABOLITES OF GLP1R AGONISTS” (Pfizer Inc., priority 2020, published 2022):

Key:
[1] = test system: Male CD-1 mouse hepatocytes; assay: In vitro metabolism of Compound 1 in mouse cryopreserved hepatocytes; type: in vitro ADME; details: HPLC/UV/MS; for metabolite of Compound 1 observed in mouse hepatocyte incubations: 10 μM Compound 1, 7.5×10^5 cells/mL, 1 and 4 hrs composite sample; for Relative abundance of metabolite of Compound 1, Mouse: mouse cryopreserved hepatocytes; as to Relative abundance of metabolite of Compound 1, Mouse: key: ND Not detected; trace: Trace: observed by HPLC/MS measurements only; + Minor as assessed by HPLC/UV measurements; ++ moderate as assessed by HPLC/UV measurements; +++ major as assessed by HPLC/UV measurements; * m/z 593 and m/z 505 co-eluted in rabbit hepatocytes; ** m/z 591c and m/z 593 were merged in human hepatocytes and Hepatopack; *** m/z 607 and m/z 751b were merged in rabbit hepatocytes
Description: (§1) Male CD-1 mouse hepatocytes (lot YHL), male Wistar-Han rat hepatocytes (Celsis; product number: M000065; lot: SLA), female New Zealand rabbit hepatocytes (lot 1510147), male cryopreserved cynomolgus monkey hepatocytes (Celsis; product number: M00305; lot: DNB) and mixed-gender cryopreserved human hepatocytes (Bioreclamation; product number: S01988; lot: DCM) were obtained for the hepatocyte in-vitro assessments.
(§2) At time 0 hrs 550 μL aliquots were removed from incubations and quenched with 5 volumes of ACN containing 0.1% formic acid. At 1 and 4 hrs, 275 μL aliquots were removed and quenched as above; these were combined in the same tube to prepare a composite sample. For all hepatocyte experiments, samples were processed by centrifugation at 1900×g for 5 minutes, and then the supernatant was transferred to clean glass tubes and evaporated to dryness under a stream of N2 using a Turbovap at 37° C. Sample residues were reconstituted in mobile phase prior to analysis by HPLC/UV/MS^n.
(§3) Samples were analyzed by HPLC/UV/MS^n using a Thermo Orbitrap Elite mass spectrometer in conjunction with a Thermo Open Accela UHPLC system. A 3.0×150 mm, 2.5 μm Acquity CSH C18 HPLC column (Waters) was heated to 45° C. for separation of analytes. The mobile phase was a gradient of A): water containing 0.1% formic acid, and B): acetonitrile. The flow rate was 450 μL/min, and the following gradient program was utilized: […]
(§4) UV absorbance was monitored with a photo-diode array detector from 220-450 nm. The mass spectrometer was operated in positive-ion mode with a HESI ion source at a potential of 3.0 kV, and capillary and source heater temperatures of 380 and 300° C., respectively. Sheath, auxiliary, and sweep gas flows were set to 45, 10, and 2 units, respectively. Full scan mass spectra were acquired over the range 120-1200 m/z at a resolving power of 30,000 (specified at m/z 400). Data-dependent MS^n spectra were acquired in an automated fashion at 15,000 resolving power using CID and HCD fragmentation with normalized collision energy settings of 28 and 65 V, respectively.
(§5) Metabolites were characterized by comparisons of mass spectral fragmentation patterns with that of a Compound 1 standard. All HPLC/UV/MS^n data were processed using Xcalibur v. 2.2, and integrated UV peak areas were subjected to weighted UV binning procedures utilizing an Excel template.

[2] = test system: mixed-gender cryopreserved human hepatocytes; assay: In vitro metabolism of Compound 1 in human cryopreserved hepatocytes; type: in vitro ADME; details: HPLC/UV/MS; for metabolite of Compound 1 observed in human hepatocyte incubations: 10 μM Compound 1, 7.5×10^5 cells/mL, 1 and 4 hrs composite sample; for Relative abundance of metabolite of Compound 1, Human: human cryopreserved hepatocytes; as to Relative abundance of metabolite of Compound 1, Human: key: ND Not detected; trace: Trace: observed by HPLC/MS measurements only; + Minor as assessed by HPLC/UV measurements; ++ moderate as assessed by HPLC/UV measurements; +++ major as assessed by HPLC/UV measurements; * m/z 593 and m/z 505 co-eluted in rabbit hepatocytes; ** m/z 591c and m/z 593 were merged in human hepatocytes and Hepatopack; *** m/z 607 and m/z 751b were merged in rabbit hepatocytes
Description: as §1, §2, §3, §4, §5

[3] = test system: male Wistar-Han rat hepatocytes; assay: In vitro metabolism of Compound 1 in rat cryopreserved hepatocytes; type: in vitro ADME; details: HPLC/UV/MS; for metabolite of Compound 1 observed in rat hepatocyte incubations: 10 μM Compound 1, 7.5×10^5 cells/mL, 1 and 4 hrs composite sample; for Relative abundance of metabolite of Compound 1, Rat: rat cryopreserved hepatocytes; as to Relative abundance of metabolite of Compound 1, Rat: key: ND Not detected; trace: Trace: observed by HPLC/MS measurements only; + Minor as assessed by HPLC/UV measurements; ++ moderate as assessed by HPLC/UV measurements; +++ major as assessed by HPLC/UV measurements; * m/z 593 and m/z 505 co-eluted in rabbit hepatocytes; ** m/z 591c and m/z 593 were merged in human hepatocytes and Hepatopack; *** m/z 607 and m/z 751b were merged in rabbit hepatocytes
Description: as §1, §2, §3, §4, §5

[4] = test system: female New Zealand rabbit hepatocytes; assay: In vitro metabolism of Compound 1 in rabbit cryopreserved hepatocytes; type: in vitro ADME; details: HPLC/UV/MS; for metabolite of Compound 1 observed in rabbit hepatocyte incubations: 10 μM Compound 1, 7.5×10^5 cells/mL, 1 and 4 hrs composite sample; for Relative abundance of metabolite of Compound 1, Rabbit: rabbit cryopreserved hepatocytes
Description: as §1, §2, §3, §4, §5

[5] = test system: male cryopreserved cynomolgus monkey hepatocytes; assay: In vitro metabolism of Compound 1 in monkey cryopreserved hepatocytes; type: in vitro ADME; details: HPLC/UV/MS; for metabolite of Compound 1 observed in monkey hepatocyte incubations: 10 μM Compound 1, 7.5×10^5 cells/mL, 1 and 4 hrs composite sample; for Relative abundance of metabolite of Compound 1, Monkey: monkey cryopreserved hepatocytes
Description: as §1, §2, §3, §4, §5

[6] = Circulating metabolites of Compound 1 in rat plasma following a 1.0 mg/kg IV bolus dose; type: in vivo; details: 1.0 mg/kg IV bolus dose of Compound 1, pooled plasma 0.033-24 hrs, male rats
Description: (§6) Plasma and bile samples were obtained from a bile duct cannulated rat experiment (Study PK-0111) in which a 1.0 mg/kg IV bolus dose was administered to fed male rats (N=3). No control plasma was available from this experiment.
Clin Pharmacol Ther 1981; 29(3):408-13]. The entire volume of each replicate Hamilton pool was combined to create a single pooled sample (576 μL) for analysis.
(§7) Pooled plasma and bile samples were extracted with ACN containing 0.1% formic acid, and after centrifugation at 1900×g, the supernatant was transferred to clean tubes and evaporated under N2 in a Turbovap set at 37° C. Residues were reconstituted in mobile phase (5:95 v:v ACN:0.1% aqueous formic acid) prior to analysis by HPLC/UV/MS^n.
as §3, §4, §5

[7] = Metabolites of Compound 1 in rat bile following a 1.0 mg/kg IV bolus dose (bile duct cannulated rat); type: in vivo; details: 1.0 mg/kg IV bolus dose of Compound 1, pooled bile 0-24 hrs, bile duct cannulated male rats
Description: as §6
Bile samples (0-3, 3-7, and 7-24 hrs) from individual animals were pooled in proportion to the amount collect in each interval. Then 0.5 mL of each individual pool was combined to prepare a composite sample for analysis.
as §7, §3, §4, §5

[8] = test system: human co-cultured hepatocytes (Hepatopack); assay: In vitro metabolism of Compound 1 in human micropatterned co-cultured hepatocytes (Hepatopack); type: in vitro ADME; details: human co-cultured hepatocytes (Hepatopack); HPLC/UV/MS; also: key: ND Not detected; trace: Trace: observed by HPLC/MS measurements only; + Minor as assessed by HPLC/UV measurements; ++ moderate as assessed by HPLC/UV measurements; +++ major as assessed by HPLC/UV measurements; * m/z 593 and m/z 505 co-eluted in rabbit hepatocytes; ** m/z 591c and m/z 593 were merged in human hepatocytes and Hepatopack; *** m/z 607 and m/z 751b were merged in rabbit hepatocytes
Text: Micro-patterned co-cultured (MPCC) hepatocyte 24-well plates containing human donors (16 wells each) were provided by Ascendance Biotechnology (formerly Hepregen Corp. (Medford, Mass.). [see Wang W W W, Khetani S R, Krzyzewski S, et al. Assessment of a Micropatterned Hepatocyte Coculture System to Generate Major Human Excretory and Circulating Drug Metabolites. Drug Metab Dispos 2010; 38(10):1900-51 The MPCCs were created at Ascendance Biotechnology and maintained in serum containing medium for 5-6 days to allow for stabilization of the co-cultures prior to shipment. A mixed-gender cryopreserved pool of 10 human donors (X008001-P; lot YFA) was used to seed the plates and was purchased from BioreclamationlVT (Westbury, N.Y.). MPCC hepatocytes are plated with fibroblasts in a 1:3 ratio with ˜25,000 hepatocytes/well in a 24-well plate. 24-Well MPCC plates were shipped to Pfizer, fresh medium (400 μL/well) was applied and cultures were kept at 37° C. with […] and 95% relative humidity for two days. Micropatterned co-cultures containing pooled hepatocytes were allowed 7 days to fully stabilize with respect to liver-specific functions. […] At respective time points (0, 2, and 7 days), the culture medium was removed and mixed with 4 volumes of ACN, then stored frozen at −40° C. until samples could be analyzed. Samples were subsequently processed by the addition of 2.5 mL of 1:1 ACN:MeOH containing 0.1% formic acid. After vortexing, the samples were centrifuged at 1900×g for 5 min, then the supernatant was transferred to 15 mL conical tubes and evaporated under N2 using a Turbovap set at 37° C. The residues were reconstituted in mobile phase (5:95 v:v ACN:0.1% aqueous formic acid) prior to analysis by HPLC/UV/MS^n.
as §3
as §4, with “Data-dependent MS^n spectra were acquired in an automated fashion at 15,000 resolving power using CID and HCD fragmentation with normalized collision energy settings of 28 and 65 V, respectively.” left out

metabolite of Compound 1 observed in mouse hepatocyte incubations [1]	metabolite of Compound 1 observed in human hepatocyte incubations [2]	metabolite of Compound 1 observed in rat hepatocyte incubations [3]	metabolite of Compound 1 observed in rabbit hepatocyte incubations [4]	metabolite of Compound 1 observed in monkey hepatocyte incubations [5]	detected in rat plasma [6]	detected in rat bile [7]	Relative abundance of metabolite of Compound 1, Mouse [1]	Relative abundance of metabolite of Compound 1, Hepatopack [8]	Relative abundance of metabolite of Compound 1, Human [2]	Relative abundance of metabolite of Compound 1, Rat [3]	detected in rat plasma ([6]; listed as m/z 331)	Relative abundance of metabolite of Compound 1, Rabbit [4]	Relative abundance of metabolite of Compound 1, Monkey [5]	detected in rat bile ([7]; listed as m/z 331)	SMILES
observed	observed	observed	observed	observed	observed	observed	+	trace	+	trace	detected	trace	+	detected	C[C@]1(c2ccc(Cl)cn2)Oc2cccc(C3CCNCC3)c2O1 [Metabolite 331]
observed		observed	observed												C[C@]1(c2ccc(Cl)cn2)Oc2cccc(C3CCN(Cc4nc5ccc(C(=O)O)cc5[nH]4)CC3)c2O1 [Metabolite 505, (S)-2-((4-(2-(5-chloropyridin-2-yl)-2-methylbenzo[d][1,3]dioxol-4-yl)piperidin-1-yl)methyl)-1H-benzo[d]imidazole-6-carboxylic acid]
							trace			trace					C[C@]1(c2ccc(Cl)cn2)Oc2cccc(C3CCN(Cc4nc5ccc(C(=O)O)cc5[nH]4)CC3)c2O1 [Metabolite 505]
observed	observed	observed	observed	observed			+	+	+	trace		+	trace		C[C@]1(c2ccc(Cl)cn2)Oc2cccc(-c3cc[n+](Cc4nc5ccc(C(=O)O)cc5n4C[C@@H]4CCO4)cc3)c2O1 [Metabolite 569]
observed	observed	observed	observed	observed											C[C@]1(c2ccc(Cl)cn2)Oc2cccc(C3CC[N+]([O-])(Cc4nc5ccc(C(=O)O)cc5n4C[C@@H]4CCO4)CC3)c2O1 (stereo partly shown) [Metabolite 591d]

The remaining lines, values behind:

SMILES	metabolite of Compound 1 observed in mouse hepatocyte incubations [1]	metabolite of Compound 1 observed in human hepatocyte incubations [2]	metabolite of Compound 1 observed in rat hepatocyte incubations [3]	metabolite of Compound 1 observed in rabbit hepatocyte incubations [4]	metabolite of Compound 1 observed in monkey hepatocyte incubations [5]	detected in rat plasma [6]	detected in rat bile [7]	Relative abundance of metabolite of Compound 1, Mouse [1]	Relative abundance of metabolite of Compound 1, Hepatopack [8]	Relative abundance of metabolite of Compound 1, Human [2]	Relative abundance of metabolite of Compound 1, Rat [3]	detected in rat plasma ([6]; listed as m/z 331)	Relative abundance of metabolite of Compound 1, Rabbit [4]	Relative abundance of metabolite of Compound 1, Monkey [5]	detected in rat bile ([7]; listed as m/z 331)
C[C@]1(c2ccc(Cl)cn2)Oc2cccc(C3CCN(Cc4nc5ccc(C(=O)O)cc5n4CC(O)CCO)CC3)c2O1 (stereo in doubt) [Metabolite 593]	observed	observed	observed	observed	observed										
C[C@]1(c2ccc(Cl)cn2)Oc2cccc(C3CCN(Cc4nc5ccc(C(=O)O)cc5n4C[C@@H]4CCO4)CC3)c2O1 [Compound 1, 2-((4-((S)-2-(5-chloropyridin-2-yl)-2-methylbenzo[d][1,3]dioxol-4-yl)piperidin-1-yl)methyl)-1-(((S)-oxetan-2-yl)methyl)-1H-benzo[d]imidazole-6-carboxylic acid]						detected	detected								
O=C(O)c1ccc2nc(CN3CCC(c4cccc(O)c4O)CC3)n(C[C@@H]3CCO3)c2c1 [Metabolite 438, (S)-2-((4-(2,3-dihydroxyphenyl)piperidin-1-yl)methyl)-1-(oxetan-2-ylmethyl)-1H-benzo[d]imidazole-6-carboxylic acid]		observed as a trace metabolite	observed as a trace metabolite		observed as a trace metabolite										
O=C(O)c1ccc2nc(CN3CCC(c4cccc(O)c4O)CC3)n(C[C@@H]3CCO3)c2c1 [Metabolite 438]										trace	trace			trace	
CC1(c2ccc(Cl)cn2)Oc2cccc(C3CCN(Cc4nc5ccc(C(=O)OC6OC(C(=O)O)C(O)C(O)C6O)cc5n4CC4CCO4)CC3)c2O1 (stereo not shown) [Metabolite 751b]								++	++	+++	+		++	+++	
